Assay results as given in patent US20180271888A1, “COMPOSITIONS AND METHODS FOR PARKINSON'S DISEASE THERAPY” (priority 2017, published 2018).
Where two headings read alike, the source gives them in different places.

Tests used:
TH = TH expression in striatum after 6-OHDA lesioning; format: in vivo, mouse; conditions: 6-OHDA 4 mg/mL, 2 μL unilateral, lesioned vs unlesioned side
Procedure: (§1) Protein samples of 50 lg ran on 10% sodium dodecyl sulfate-polyacrylamide gel electrophoresis gels and transferred onto polyvinylidine diflouride membranes using semi-dry transfer method (Trans turbo blot; BioRad Laboratories, Hercules, Calif., USA). Striatal samples from WT and P2X4R KO mice were made to run on the same gel and transferred onto the same membrane. Nonspecific binding was blocked by incubation in 5% non-fat dry milk, followed by incubation with primary antibodies overnight at 4° C. The antibodies used were rabbit anti-TH (1:5000), mouse anti-DAT (1:1000), rabbit anti-D2 receptor (1:1000), rabbit anti-DARPP-32 (1:1000) (Millipore), rabbit anti-D1 receptor (1:500; SantaCruz biotechnology, Santacruz, Calif., USA), mouse anti-total ERK 1/2 (1:1000), rabbit anti-total CREB (1:1000) (Cell Signaling Technology, Beverly, Mass., USA), mouse anti-β-actin (1:20 000; Sigma-Aldrich), and mouse anti-α-tubulin (1:10 000; Millipore). The antibodies for phospho proteins included rabbit antiphospho-Thr34-DARPP-32 (1:400; Millipore), rabbit anti-phospho-Ser133-CREB (1:500), rabbit anti-diphospho-Thr202/Tyr204-ERK 1/2 (1:500) (Cell Signaling Technology). Secondary antibodies included goat anti-mouse and goat anti-rabbit antibodies (1:10 000; BioRad Laboratories). […] Protein quantification was carried out by optical densitometry using ImageJ software (NIH, Bethesda, Md., USA). […]

[1] = cited from earlier work
WT and P2X4R KO mice [2] = conditions: Bortolato et al. 2013, cited from earlier work
DARPP-32 = test: Western immunoblotting of total and phosphorylated DARPP-32 in striatum after IVM; format: in vivo, mouse
Procedure: (§2) The dorsal and ventral striata were dissected from P2X4R KO and WT mice following killing with CO2 asphyxiation. […] The dorsal and ventral striata were dissected out as per the neuroanatomical landmarks described in the mouse brain atlas (Franklin, B. J. and Paxinos, G. (2007) The Mouse Brain in Stereotaxic Coordinates. Elsevier Academic Press, Amsterdam). The brain tissues were homogenized in a buffer containing 50 mM Tris-HCl pH (8.0), 150 mM NaCl, 1 mM EDTA, 0.1% sodium dodecyl sulfate, 1/100 dilution proteinases inhibitor cocktail (Millipore, Temecula, Calif., USA), and protein content was determined using bicinchoninic acid assay kit (Thermo Scientific, Rockford, Ill., USA). Homogenates were treated with a cocktail of phosphatase inhibitors (1 mM sodium pyrophosphate, 10 mM sodium fluoride, 0.5 mM sodium orthovandate, 10 mM β-glycerol phosphate, 1 μM microcysteine LR) (Sigma-Aldrich) for detection of phosphoproteins.
Protein samples of 50 lg ran on 10% sodium dodecyl sulfate-polyacrylamide gel electrophoresis gels and transferred onto polyvinylidine diflouride membranes using semi-dry transfer method (Trans turbo blot; BioRad Laboratories, Hercules, Calif., USA). Striatal samples from WT and P2X4R KO mice were made to run on the same gel and transferred onto the same membrane. Nonspecific binding was blocked by incubation in 5% non-fat dry milk, followed by incubation with primary antibodies overnight at 4° C. The antibodies used were rabbit anti-TH (1:5000), mouse anti-DAT (1:1000), rabbit anti-D2 receptor (1:1000), rabbit anti-DARPP-32 (1:1000) (Millipore), rabbit anti-D1 receptor (1:500; SantaCruz biotechnology, Santacruz, Calif., USA), mouse anti-total ERK 1/2 (1:1000), rabbit anti-total CREB (1:1000) (Cell Signaling Technology, Beverly, Mass., USA), mouse anti-β-actin (1:20 000; Sigma-Aldrich), and mouse anti-α-tubulin (1:10 000; Millipore). The antibodies for phospho proteins included rabbit antiphospho-Thr34-DARPP-32 (1:400; Millipore), rabbit anti-phospho-Ser133-CREB (1:500), rabbit anti-diphospho-Thr202/Tyr204-ERK 1/2 (1:500) (Cell Signaling Technology). Secondary antibodies included goat anti-mouse and goat anti-rabbit antibodies (1:10 000; BioRad Laboratories). Bands were visualized using chemiluminescence method (Clarity western plus enhanced chemiluminescence substrate; BioRad Laboratories) followed by exposure to HyBlot autoradiography films (Denville Scientific, Metuchen, N.J., USA). Protein quantification was carried out by optical densitometry using ImageJ software (NIH, Bethesda, Md., USA). Protein densities were normalized to β-actin or α-tubulin levels.
(§3) For the western blotting analysis, the average of densitometry values of WT striatal samples was used to arbitrarily normalize WT samples to 1 and the P2X4R KO striatal samples were normalized by dividing each densitometry value by the average of WT samples. […] Normalized density of proteins was expressed as mean±SEM. Phosphorylation was calculated as ratio of normalized values of phosphorylated form to total form of protein. DA levels were expressed as ng/mg of protein content. […] Pharmacological studies for motor behavior and sensorimotor gating were analyzed by two-way repeated measures ANOVA with time/PPI intensity and genotype/treatment as within and between-subjects variability, respectively, followed by Bonferroni post hoc test for multiple comparisons. […]

[3] = tested on: 6-OHDA lesioned WT and P2X4R KO mice; test: L-DOPA-induced rotational behavior in the 6-OHDA model of DA depletion (Example 1); format: in vivo, mouse
Procedure: Mice were treated with desipramine hydrochloride (25 mg/kg, i.p.) (Sigma-Aldrich) 30 min prior to surgery to prevent concurrent damage of noradrenergic pathways by 6-OHDA. Mice were anesthetized with avertin ([…], i.p.) and placed in the stereotaxic apparatus. Two μL of freshly prepared 6-OHDA bromide salt (4 mg/mL in 0.2% ascorbic acid and 0.9% saline; Sigma-Aldrich) was unilaterally infused into left median forebrain bundle (from Bregma point: 1.2 mm posterior, 1.1 mm lateral, 5 mm ventral) (Franklin, B. J. and Paxinos, G. (2007) The Mouse Brain in Stereotaxic Coordinates. Elsevier Academic Press, Amsterdam) at a rate of 0.5 μL/min using a 10 μL Hamilton syringe and a microlitre syringe pump. The injection cannula was left in place for 3-5 min to prevent reflux and ensure complete absorption. Post-operative procedures involved daily subcutaneous (s.c.) injections with sucrose (5% w/v in saline) and warming on a heating pad for 2 weeks.
Mice were subjected to behavioral testing 3 weeks after 6-OHDA lesioning surgery. Mice were placed in a plastic cylinder (318 mm in diameter) with a video camera mounted above it. Baseline rotational behavior was established by saline injections which causes the mouse to rotate toward the lesioned side with lesser DA activity (ipsilateral rotations). L-DOPA (5 mg/kg, s.c.) was administered 5 min prior to behavioral testing and the number of contralateral and ipsilateral rotations were counted in every 10-minute interval for a total period of 90 min.
For the western blotting analysis, the average of densitometry values of WT striatal samples was used to arbitrarily normalize WT samples to 1 and the P2X4R KO striatal samples were normalized by dividing each densitometry value by the average of WT samples. Normalization of the two genotypes was done within the same membrane and presented as fold change of P2X4R KO versus WT in that membrane. For D1, D2, DARPP-32, ERK 1/2, and CREB immunoblotting; WT and P2X4R KO mice were generated in separate cohorts. The normalization of P2X4R KO to WT samples was done within the same cohort followed by combining data from two cohorts for analyses. […] Normalized density of proteins was expressed as mean±SEM. Phosphorylation was calculated as ratio of normalized values of phosphorylated form to total form of protein. DA levels were expressed as ng/mg of protein content. Unpaired Student t-test was used for analyzing the differences in protein densities and DA levels between WT and P2X4R KO groups. […] Pharmacological studies for motor behavior and sensorimotor gating were analyzed by two-way repeated measures ANOVA with time/PPI intensity and genotype/treatment as within and between-subjects variability, respectively, followed by Bonferroni post hoc test for multiple comparisons. Significance was set at p<0.05. All data were analyzed using GraphPad Prism software (San Diego, Calif., USA).

CREB = test: Western immunoblotting of total and phosphorylated CREB in striatum after IVM; format: in vivo, mouse; conditions: effect of IVM treatment 5 mg/kg
Procedure: as §2
as §1, with “Millipore).” for “Millipore). The antibodies for phospho proteins included rabbit antiphospho-Thr34-DARPP-32 (1:400; Millipore), rabbit anti-phospho-Ser133-CREB (1:500), rabbit anti-diphospho-Thr202/Tyr204-ERK 1/2 (1:500) (Cell Signaling Technology). Secondary antibodies included goat anti-mouse and goat anti-rabbit antibodies (1:10 000; BioRad Laboratories).”
as §3

ERK 1/2 = test: Western immunoblotting of total and phosphorylated ERK 1/2 in striatum after IVM; format: in vivo, mouse
Procedure: as §2
as §1, with “Millipore).” for “Millipore). The antibodies for phospho proteins included rabbit antiphospho-Thr34-DARPP-32 (1:400; Millipore), rabbit anti-phospho-Ser133-CREB (1:500), rabbit anti-diphospho-Thr202/Tyr204-ERK 1/2 (1:500) (Cell Signaling Technology). Secondary antibodies included goat anti-mouse and goat anti-rabbit antibodies (1:10 000; BioRad Laboratories).”
as §3

WT and P2X4R KO mice [4] = test: Prepulse inhibition (PPI) of acoustic startle reflex; format: in vivo, mouse
Procedure: Acoustic startle reflex and PPI were tested as previously described (Wyatt, L. R. et al. (2013) Neuropsychopharmacology 38:1993-2002). The apparatus used for detection of startle reflex (San Diego Instruments, San Diego, Calif., USA) consisted of a standard cage placed in sound attenuated chambers with fan ventilation. Each cage consisted of a Plexiglass cylinder of 3 cm diameter, mounted on piezoelectric accelerometric platform connected to an analog-digital converter. Background noise and acoustic bursts were conveyed by two separate speakers, each one oriented appropriately so as to produce a variation in sound within 1 dB across the startle cage. Both speakers and startle cages were connected to the main PC, which detected and analyzed all chamber variables with Startle software (San Diego Instruments). Before each testing session, acoustic stimuli were calibrated via a digital sound level meter.
During the baseline session, mice were exposed to background noise of 70 dB and, after an acclimatization period of 5 min, were presented with 12 40 ms trials of 115 dB interposed with three trials of a 82 dB pre-stimulus preceding the 115 dB by 100 ms. […] Delta PPI (APPI) was calculated as mean startle amplitude for pulse alone trials—(mean startle amplitude for prepulse trial). […]
as §3

[5] = ventral striatum, main effect of IVM treatment 5 mg/kg, treatment×genotype interaction significant (p<0.05)
[6] = ventral striatum, effect of IVM treatment 5 mg/kg

NCCc1cc(O)c(O)cc1O [6-OHDA, 6-hydroxydopamine]
reduced TH expression in the striatum (TH; P2X4R KO mice): 96.3%
reduced TH expression in the striatum (TH; WT mice): 95.7%

C[C@@](Cc1ccc(O)c(O)c1)(NN)C(=O)O.O [Carbidopa, N-amino-α-methyl-3-hydroxy-L-tyrosine monohydrate]
solubility in water [1]: slightly soluble

CC[C@H](C)[C@H]1O[C@]2(CC[C@@H]1C)C[C@@H]1C[C@@H](C/C=C(\C)[C@@H](O[C@H]3C[C@H](OC)[C@@H](O[C@H]4C[C@H](OC)[C@@H](O)[C@H](C)O4)[C@H](C)O3)[C@@H](C)/C=C/C=C3\CO[C@@H]4[C@H](O)C(C)=C[C@@H](C(=O)O1)[C@]34O)O2 [IVM, ivermectin]
PPI (effect of IVM) (WT and P2X4R KO mice [2]; P2X4R KO mice): attenuated response
PPI (effect of IVM) (WT and P2X4R KO mice [2]; WT C57BL/6J mice): PPI disruption
DARPP-32 phosphorylation (DARPP-32; dorsal striatum, P2X4R KO mice, IVM 5 mg/kg i.p., 8 h post-drug): did not increase
DARPP-32 phosphorylation (DARPP-32; dorsal striatum, WT mice, IVM 5 mg/kg i.p., 8 h post-drug, vs vehicle, Bonferroni p<0.05): significant increase
total DARPP-32 levels (DARPP-32; dorsal striatum, main effect of IVM treatment (5 mg/kg i.p.), treatment×genotype interaction significant): no significant effect
DARPP-32 phosphorylation (DARPP-32; [5]): no significant effect
total DARPP-32 levels (DARPP-32; [5]): no significant effect
L-DOPA induced motor behavior (contralateral rotations) ([3]; 6-OHDA P2X4R KO mice, IVM 5 mg/kg + L-DOPA 5 mg/kg vs L-DOPA alone, during the 5-15 min interval): significant increase
number of L-DOPA-induced rotations (contralateral) ([3]; 6-OHDA WT mice, IVM 5 mg/kg i.p. 8 h prior + L-DOPA 5 mg/kg s.c. vs L-DOPA alone, significant 5-65 min): significantly increased
rotations induced by IVM alone (ipsilateral) ([3]; 6-OHDA WT mice, IVM 5 mg/kg i.p. 8 h prior, average for 2 hours, SEM ±2, significant vs sham controls): 12 rotations
CREB phosphorylation (CREB; dorsal striatum): no significant effect
total CREB levels (CREB; dorsal striatum): no significant effect
total CREB levels (CREB; ventral striatum): no significant effect
CREB phosphorylation (CREB; ventral striatum, interaction trended toward significance): no significant effect
ERK 1/2 phosphorylation (ERK 1/2; dorsal striatum, IVM 5 mg/kg, both genotypes (independent of P2X4R function)): increased
total ERK 1/2 levels (ERK 1/2; dorsal striatum, main effect of IVM treatment, treatment×genotype interaction significant): no significant effect
ERK 1/2 phosphorylation (ERK 1/2; [6]): no significant effect
total ERK 1/2 levels (ERK 1/2; [6]): no significant effect

N[C@@H](Cc1ccc(O)c(O)c1)C(=O)O [L-DOPA, L-3,4-didhydrophenylalanine]
rotational behavior with L-DOPA treatment ([3]; L-DOPA 5 mg/kg s.c., 6-OHDA lesioned WT and P2X4R KO mice): exhibited contralateral rotations
L-DOPA-induced contralateral turns, P2X4R KO compared to WT mice ([3]; L-DOPA 5 mg/kg, significant during the 45-55 min interval): significantly fewer

CCN1CCC[C@H]1CNC(=O)c1c(O)c(Cl)cc(Cl)c1OC [raclopride]
PPI of acoustic startle reflex (WT and P2X4R KO mice [4]; P2X4R KO mice vs saline, SCH-23390 1 mg/kg i.p. or raclopride 3 mg/kg i.p., 10 min prior, significant at PPI 6 and PPI 12): significantly enhanced
startle amplitude (WT and P2X4R KO mice [4]; P2X4R KO mice, SCH-23390 1 mg/kg or raclopride 3 mg/kg): without any changes
PPI function (WT and P2X4R KO mice [4]; WT mice, SCH-23390 1 mg/kg or raclopride 3 mg/kg i.p.): no significant changes
